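Grown in 96-well plates, cells were treated for 48 hours with each compound at five concentrations. Insufficient inhibition: endpoint recorded as highest concentration tested. GI50 is the concentration that inhibits growth by half.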 The source made the active and inactive calls. No stated cut-off is given here; in the data, active = GI50 up to about 1.1 µM and inactive = higher.
How the values were obtained:
Experiment in all cases: NCI-60 cell line screen, 48 h
MDA-MB-231 = tested on: MDA-MB-231
HOP-62 = tested on: HOP-62
M14 = tested on: M14
OVCAR-4 = tested on: OVCAR-4
OVCAR-5 = tested on: OVCAR-5
786-0 = tested on: 786-0
SK-MEL-2 = tested on: SK-MEL-2
DU-145 = tested on: DU-145
COLO 205 = tested on: COLO 205
MDA-N = tested on: MDA-N
UACC-62 = tested on: UACC-62
CAKI-1 = tested on: CAKI-1
OVCAR-3 = tested on: OVCAR-3
CCRF-CEM = tested on: CCRF-CEM
KM12 = tested on: KM12
A549 = tested on: A549
Malme-3M = tested on: Malme-3M
PC-3 = tested on: PC-3
HCT-116 = tested on: HCT-116
NCI-H23 = tested on: NCI-H23
SNB-19 = tested on: SNB-19
SF-295 = tested on: SF-295
HL-60 = tested on: HL-60
NCI-H460 = tested on: NCI-H460
MDA-MB-435 = tested on: MDA-MB-435
TK-10 = tested on: TK-10
Hs-578T = tested on: Hs-578T
UO-31 = tested on: UO-31
RXF 393 = tested on: RXF 393
EKVX = tested on: EKVX
MCF7 = tested on: MCF7
NCI/ADR-RES = tested on: NCI/ADR-RES
ACHN = tested on: ACHN
SNB-75 = tested on: SNB-75
SR = tested on: SR
SW-620 = tested on: SW-620
OVCAR-8 = tested on: OVCAR-8
SK-MEL-28 = tested on: SK-MEL-28
HCT-15 = tested on: HCT-15
UACC-257 = tested on: UACC-257
SF-539 = tested on: SF-539
SN12C = tested on: SN12C
SK-MEL-5 = tested on: SK-MEL-5
HT-29 = tested on: HT-29
IGROV-1 = tested on: IGROV-1
MOLT-4 = tested on: MOLT-4
U-251 = tested on: U-251
LOX IMVI = tested on: LOX IMVI
NCI-H226 = tested on: NCI-H226
RPMI-8226 = tested on: RPMI-8226
SK-OV-3 = tested on: SK-OV-3
HOP-92 = tested on: HOP-92
SF-268 = tested on: SF-268
A498 = tested on: A498
HCC 2998 = tested on: HCC 2998

Measured: GI50

N#C/C(=C/n1c(=S)[nH]c2ccc([N+](=O)[O-])cc21)C(N)=O
inactive: MDA-MB-231 > 100 µM | HOP-62 > 100 µM | M14 > 100 µM | OVCAR-4 > 100 µM | OVCAR-5 > 100 µM | 786-0 > 100 µM | SK-MEL-2 > 100 µM | DU-145 > 100 µM | COLO 205 > 100 µM | MDA-N > 100 µM | UACC-62 > 100 µM | CAKI-1 > 100 µM | OVCAR-3 > 100 µM | CCRF-CEM > 100 µM | KM12 > 100 µM | A549 > 100 µM | Malme-3M > 100 µM | PC-3 > 100 µM | HCT-116 > 100 µM | NCI-H23 > 100 µM | SNB-19 > 100 µM | SF-295 > 100 µM | HL-60 9.33 µM | NCI-H460 > 100 µM | MDA-MB-435 > 100 µM | TK-10 > 100 µM | Hs-578T > 100 µM | UO-31 > 100 µM | RXF 393 > 100 µM | EKVX 22.2 µM | MCF7 > 100 µM | NCI/ADR-RES > 100 µM | ACHN > 100 µM | SNB-75 19.7 µM | SR > 100 µM | SW-620 > 100 µM | OVCAR-8 > 100 µM | SK-MEL-28 > 100 µM | UACC-257 > 100 µM | SF-539 > 100 µM | SN12C > 100 µM | SK-MEL-5 > 100 µM | HT-29 > 100 µM | IGROV-1 > 100 µM | MOLT-4 > 100 µM | U-251 > 100 µM | LOX IMVI > 100 µM | NCI-H226 > 100 µM | RPMI-8226 > 100 µM | SK-OV-3 > 100 µM | HOP-92 > 100 µM | SF-268 > 100 µM
> 100 µM: HCT-15

COc1ccc2c(ccc3c(C(=O)NCCN(C)CCNC(=O)c4cn(C)c5c4ccc4cc(OC)ccc45)cn(C)c32)c1
inactive: HOP-62 1.44 µM | M14 1.64 µM | OVCAR-4 1.56 µM | 786-0 1.53 µM | DU-145 1.73 µM | COLO 205 2.01 µM | MDA-N 1.57 µM | A498 20 µM | UACC-62 1.84 µM | CAKI-1 1.62 µM | OVCAR-3 1.51 µM | KM12 1.66 µM | A549 1.79 µM | PC-3 1.51 µM | HCT-116 1.79 µM | NCI-H23 1.32 µM | HCC 2998 1.47 µM | SNB-19 1.95 µM | SF-295 1.85 µM | NCI-H460 1.45 µM | MDA-MB-435 2.38 µM | Hs-578T 1.95 µM | UO-31 1.45 µM | RXF 393 1.4 µM | EKVX 1.3 µM | NCI/ADR-RES 1.42 µM | ACHN 1.72 µM | SW-620 2.18 µM | SK-MEL-28 1.79 µM | UACC-257 1.58 µM | SN12C 1.49 µM | SK-MEL-5 1.63 µM | HT-29 1.4 µM | U-251 3.16 µM | LOX IMVI 2.15 µM | HOP-92 2.61 µM | SF-268 1.95 µM
active: IGROV-1 1.02 µM | NCI-H226 0.628 µM
1.26 µM: HCT-15

O=c1ccn([C@@H]2O[C@H](CO)[C@@H](O)[C@H]2F)c(=O)[nH]1
> 99.5 µM: HCT-15
inactive: MDA-MB-231 > 100 µM | HOP-62 > 100 µM | M14 > 100 µM | OVCAR-4 > 100 µM | OVCAR-5 > 100 µM | SK-MEL-2 > 100 µM | DU-145 > 100 µM | COLO 205 > 100 µM | MDA-N > 100 µM | A498 > 100 µM | A549 > 100 µM | HCT-116 > 99.8 µM | NCI-H23 > 100 µM | HCC 2998 > 100 µM | SNB-19 > 100 µM | SF-295 > 100 µM | NCI-H460 88.7 µM | MDA-MB-435 > 100 µM | TK-10 > 100 µM | Hs-578T > 100 µM | UO-31 > 100 µM | NCI/ADR-RES > 100 µM | ACHN > 100 µM | SNB-75 > 100 µM | OVCAR-8 > 100 µM | SK-MEL-28 > 100 µM | UACC-257 > 100 µM | SF-539 > 100 µM | SN12C > 100 µM | HT-29 > 100 µM | IGROV-1 > 100 µM | U-251 95.1 µM | NCI-H226 > 100 µM | SK-OV-3 > 100 µM | SF-268 > 100 µM

Reference: ChEMBL document CHEMBL1201862, “PubChem BioAssay data set” (2004)
